ChEMBL document CHEMBL3124761, “Synthesis and biological evaluation of N,N'-squaramides with high in vivo efficacy and low toxicity: toward a low-cost drug against Chagas disease” (J Med Chem, 2014)
pIC50: −log10 of the molar value. Blank lines part the entries; values can stand above or below the compound they belong to. Activity calls are given as the source filed them. No cut-off for these calls is given here.

Columns and labels:
[1] = system: Trypanosoma cruzi; experiment: Trypanocidal activity against metacyclic trypomastigote stage of Trypanosoma cruzi infected in BALB/c albino mouse acute chagas disease model assessed as reduction of parasite burden at 25 mg/kg, ip administered on day 7 to 12 post-infection measured on day 14 by ELISA; assay type: functional, organism-based; parameters: dose 25 mg/kg
[2] = system: Trypanosoma cruzi; experiment: (§1) Antitrypanosomal activity against amastigote stage of Trypanosoma cruzi IRHOD/CO/2008/SN3 infected in African green monkey Vero cells assessed as reduction of amastigote number per cell at IC25 preincubated for 12 hrs followed by compound washout measured every 48 hrs for 10 days by Neubauer hemocytometric chamber analysis relative to control; assay type: functional
[3] = system: Trypanosoma cruzi; experiment: Trypanocidal activity against metacyclic trypomastigote stage of Trypanosoma cruzi infected in BALB/c albino mouse acute chagas disease model assessed as inhibition of parasitemia at 25 mg/kg, ip administered on day 7 to 12 post-infection measured every 2 days until day 40 […] relative to control; assay type: functional; conditions: route intraperitoneal
[4] = system: Trypanosoma cruzi; experiment: as §1, with “trypomastigote” for “amastigote”, “IRHOD/CO/2008/SN3” for “IRHOD/CO/2008/SN3 infected in African green monkey Vero cells”, “mililiter of culture medium” for “cell”; assay type: functional
[5] = system: Trypanosoma cruzi; experiment: as §1, with “decrease in infection rate” for “reduction of amastigote number per cell”; assay type: functional
[6] = system: Trypanosoma cruzi; experiment: Antitrypanosomal activity against amastigote stage of Trypanosoma cruzi IRHOD/CO/2008/SN3 infected in African green monkey Vero cells assessed as parasite growth inhibition after 72 hrs by Giemsa staining-based microscopic analysis; assay type: functional, organism-based; conditions: IRHOD/CO/2008/SN3, Vero
[7] = system: Vero; experiment: Cytotoxicity against African green monkey Vero cells assessed as cell viability after 72 hrs by propidium iodide/fluorescein diacetate staining-based flow cytometric analysis; conditions: Chlorocebus sabaeus
[8] = Selectivity index, ratio of IC50 for African green monkey Vero cells to IC50 for amastigote stage of Trypanosoma cruzi IRHOD/CO/2008/SN3 infected in African green monkey Vero cells; assay type: toxicity, cell-based; conditions: read-out: Ratio IC50
[9] = system: Trypanosoma cruzi; experiment: Antitrypanosomal activity against epimastigote stage of Trypanosoma cruzi IRHOD/CO/2008/SN3 assessed as parasite growth inhibition after 72 hrs by Neubauer hemocytometric chamber analysis; assay type: functional, organism-based; conditions: IRHOD/CO/2008/SN3, 72 h
[10] = Selectivity index, ratio of IC50 for African green monkey Vero cells to IC50 for epimastigote stage of Trypanosoma cruzi IRHOD/CO/2008/SN3; assay type: toxicity, cell-based; conditions: read-out: Ratio IC50
[11] = system: Mus musculus; experiment: Toxicity in BALB/c albino mouse infected with blood trypomastigote stage of Trypanosoma cruzi assessed as change in creatinephophokinase-MB level in serum at 25 mg/kg, ip administered on day 7 to 12 post-infection measured after day 120 relative to control; assay type: organism-based; parameters: dose 25 mg/kg, route intraperitoneal; conditions: in vivo
[12] = system: Mus musculus; experiment: Toxicity in BALB/c albino mouse infected with blood trypomastigote stage of Trypanosoma cruzi assessed as change in alkaline phosphatase level in serum at 25 mg/kg, ip administered on day 7 to 12 post-infection measured after day 120 relative to control; assay type: organism-based; parameters: dose 25 mg/kg, route intraperitoneal; conditions: in vivo
[13] = system: Trypanosoma cruzi; experiment: Antitrypanosomal activity against epimastigote stage of Trypanosoma cruzi IRHOD/CO/2008/SN3 assessed as change in excreted succinate level at IC25 after 96 hrs by 1H NMR analysis relative to control; assay type: functional
[14] = system: Mus musculus; experiment: Toxicity in BALB/c albino mouse infected with blood trypomastigote stage of Trypanosoma cruzi assessed as change in urea level in serum at 25 mg/kg, ip administered on day 7 to 12 post-infection measured after day 120 relative to control; assay type: organism-based; parameters: dose 25 mg/kg, route intraperitoneal; conditions: in vivo
[15] = system: Trypanosoma cruzi; experiment: Antitrypanosomal activity against epimastigote stage of Trypanosoma cruzi IRHOD/CO/2008/SN3 assessed as formation of electron-dense vacuoles at IC25 after 72 hrs by TEM analysis; assay type: functional, organism-based
[16] = system: Mus musculus; experiment: Toxicity in BALB/c albino mouse infected with blood trypomastigote stage of Trypanosoma cruzi assessed as increase in total bilirubin level in serum at 25 mg/kg, ip administered on day 7 to 12 post-infection measured after day 120 relative to control; assay type: organism-based; parameters: dose 25 mg/kg, route intraperitoneal; conditions: in vivo
[17] = system: Mus musculus; experiment: Toxicity in BALB/c albino mouse infected with blood trypomastigote stage of Trypanosoma cruzi assessed as increase in uric acid level in serum at 25 mg/kg, ip administered on day 7 to 12 post-infection measured after day 120 relative to control; assay type: organism-based; parameters: dose 25 mg/kg, route intraperitoneal; conditions: in vivo
[18] = system: Trypanosoma cruzi; experiment: Antitrypanosomal activity against epimastigote stage of Trypanosoma cruzi IRHOD/CO/2008/SN3 assessed as partially scalloped parasite outer membrane at IC25 after 72 hrs by TEM analysis; assay type: functional, organism-based
[19] = system: Mus musculus; experiment: Toxicity in BALB/c albino mouse infected with blood trypomastigote stage of Trypanosoma cruzi assessed as increase in AST/GOT level in serum at 25 mg/kg, ip administered on day 7 to 12 post-infection measured after day 120 relative to control; assay type: organism-based; parameters: dose 25 mg/kg, route intraperitoneal; conditions: in vivo
[20] = system: Trypanosoma cruzi; experiment: Antitrypanosomal activity against epimastigote stage of Trypanosoma cruzi IRHOD/CO/2008/SN3 assessed as change in excreted alanine level at IC25 after 96 hrs by 1H NMR analysis relative to control; assay type: functional
[21] = system: Mus musculus; experiment: Toxicity in BALB/c albino mouse assessed as mortality at 25 mg/kg, ip administered for 5 days; assay type: organism-based; parameters: dose 25 mg/kg, route intraperitoneal; conditions: in vivo, 120 h
[22] = system: Trypanosoma cruzi; experiment: Antitrypanosomal activity against epimastigote stage of Trypanosoma cruzi IRHOD/CO/2008/SN3 assessed as change in excreted pyruvate level at IC25 after 96 hrs by 1H NMR analysis relative to control; assay type: functional
[23] = system: Trypanosoma cruzi; experiment: Antitrypanosomal activity against epimastigote stage of Trypanosoma cruzi IRHOD/CO/2008/SN3 assessed as mitochondrial swelling with rupture of membrane at IC25 after 72 hrs by TEM analysis; assay type: functional, organism-based
[24] = system: Trypanosoma cruzi; experiment: Antitrypanosomal activity against epimastigote stage of Trypanosoma cruzi IRHOD/CO/2008/SN3 assessed as discontinuation of parasite outer membrane at IC25 after 72 hrs by TEM analysis; assay type: functional, organism-based
[25] = system: Trypanosoma cruzi; experiment: Antitrypanosomal activity against epimastigote stage of Trypanosoma cruzi IRHOD/CO/2008/SN3 assessed as change in excreted lactate level at IC25 after 96 hrs by 1H NMR analysis relative to control; assay type: functional
[26] = system: Mus musculus; experiment: Toxicity in BALB/c albino mouse infected with blood trypomastigote stage of Trypanosoma cruzi assessed as increase in LDH level in serum at 25 mg/kg, ip administered on day 7 to 12 post-infection measured after day 120 relative to control; assay type: organism-based; parameters: dose 25 mg/kg, route intraperitoneal; conditions: in vivo
[27] = system: Mus musculus; experiment: Toxicity in BALB/c albino mouse infected with blood trypomastigote stage of Trypanosoma cruzi assessed as change in ALT/GPT level in serum at 25 mg/kg, ip administered on day 7 to 12 post-infection measured after day 120 relative to control; assay type: organism-based; parameters: dose 25 mg/kg, route intraperitoneal; conditions: in vivo
[28] = system: Trypanosoma cruzi; experiment: Antitrypanosomal activity against epimastigote stage of Trypanosoma cruzi IRHOD/CO/2008/SN3 assessed as disappearance of microtubular structure at IC25 after 72 hrs by TEM analysis; assay type: functional, organism-based
[29] = system: Trypanosoma cruzi; experiment: Antitrypanosomal activity against epimastigote stage of Trypanosoma cruzi IRHOD/CO/2008/SN3 assessed as change in excreted acetate level at IC25 after 96 hrs by 1H NMR analysis relative to control; assay type: functional

Compound: O=C(Cn1ccnc1[N+](=O)[O-])NCc1ccccc1 [BENZNIDAZOLE]
Activity [1]: Active | inhibition (INH) [2]: 15% | inhibition in vivo at 25 mg/kg [3]: 26% | inhibition (INH) [4]: 21% | inhibition (INH) [5]: 20%

Compound: NCc1ccc(Nc2c(O)c(=O)c2=O)cc1
pIC50 [6]: 4.14 | pIC50 [7]: 4.44 | selectivity ratio [8]: 0.5 | pIC50 [9]: 4.05 | selectivity ratio [10]: 0.4

Compound: C[N+](C)(C)CCNc1c(NCc2cccc(CNc3c(NCC[N+](C)(C)C)c(=O)c3=O)c2)c(=O)c1=O
pIC50 [6]: 4.36 | pIC50 [7]: 4.14 | selectivity ratio [8]: 1.7 | pIC50 [9]: 3.92 | selectivity ratio [10]: 0.6

Compound: O=c1c(O)c(Nc2ccccc2O)c1=O
pIC50 [6]: 4.36 | pIC50 [7]: 3.64 | selectivity ratio [8]: 5.2 | pIC50 [9]: 4.29 | selectivity ratio [10]: 4.5

Compound: CCCCNc1c(NCCN(C)C)c(=O)c1=O
pIC50 [6]: 5.03 | Activity [11]: < 10% | Activity [12]: < 10% | Activity [13]: -28.3% | Activity [14]: < 10% | Activity [15]: Active | Activity [1]: Active | Activity [16]: 40% | Activity [17]: 30% | Activity [18]: Active | pIC50 [7]: 3.58 | Activity [19]: 40% | Activity [20]: -11.1% | Activity [21]: Non-toxic | Activity [22]: -11.1% | Activity [23]: Active | inhibition (INH) [2]: 35% | inhibition in vivo at 25 mg/kg [3]: 31% | Activity [24]: Active | Activity [25]: -23.9% | Activity [26]: 40% | selectivity ratio [8]: 28 | pIC50 [9]: 4.98 | Activity [27]: < 10% | Activity [28]: Active | Activity [29]: -18.6% | inhibition (INH) [4]: 18% | selectivity ratio [10]: 24.8 | inhibition (INH) [5]: 35%

More lines, main results first:

pIC50 [6]: 4.74 | pIC50 [9]: 4.58
Compound: CCOC(=O)c1ccc(Nc2c(O)c(=O)c2=O)cc1
pIC50 [7]: 4.67 | selectivity ratio [8]: 1.2 | selectivity ratio [10]: 0.8

pIC50 [6]: 4.62 | pIC50 [9]: 4.45
Compound: CCCCNc1c(NCC(=O)O)c(=O)c1=O
pIC50 [7]: 4.26 | selectivity ratio [8]: 2.3 | selectivity ratio [10]: 1.5

pIC50 [6]: 4.51 | pIC50 [9]: 4.66
Compound: CN1CCCNc2c(c(=O)c2=O)NCCCN(C)CCCNc2c(c(=O)c2=O)NCCC1
pIC50 [7]: 3.96 | selectivity ratio [8]: 3.5 | selectivity ratio [10]: 5.1

pIC50 [6]: 4.65 | pIC50 [9]: 4.30
Compound: CCCCCCCCCCCCCCCCNc1c(NCCN(C)C)c(=O)c1=O
pIC50 [7]: 4.05 | selectivity ratio [8]: 3.4 | selectivity ratio [10]: 1.8
